Test results taken from patent publication US9024013B2, “Method for purifying rocuronium bromide” (Zhejiang Huahai Pharmaceutical Co., Ltd, priority 2011, dated 2015).

Assay: Storage stability at room temperature of rocuronium bromide samples (related substances by HPLC)
Type: physicochemical
Conditions: for Impurity A, substances involved (HPLC) / Impurity C, substances involved (HPLC) / Total impurities, substances involved (HPLC) / Single unknown impurity, substances involved (HPLC): room temperature storage

C=CC[N+]1([C@H]2C[C@H]3[C@@H]4CC[C@H]5C[C@H](O)[C@@H](N6CCOCC6)C[C@]5(C)[C@H]4CC[C@]3(C)[C@H]2OC(C)=O)CCCC1 [rocuronium bromide]
hydrolyzed impurities after storage (versus USP33 limits) (moisture 4% or more, storage period of about 10 days at room temperature): out of limits
levels of impurities after storage (moisture controlled to about 0.5%, storage period of one month at room temperature): substantially unchanged
level of impurities after storage (purified by the method of the invention, moisture 4% or less, preferably 0.5% or less, one month at room temperature): substantially unchanged
Impurity A, substances involved (HPLC) (sample moisture 0.5%, Day 0): 0.02%
Impurity C, substances involved (HPLC) (sample moisture 0.5%, Day 0): 0.06%
Total impurities, substances involved (HPLC) (sample moisture 0.5%, Day 0): 0.08%
Impurity A, substances involved (HPLC) (sample moisture 0.5%, Day 10): 0.02%
Impurity C, substances involved (HPLC) (sample moisture 0.5%, Day 10): 0.06%
Total impurities, substances involved (HPLC) (sample moisture 0.5%, Day 10): 0.08%
Impurity A, substances involved (HPLC) (sample moisture 0.5%, Day 20): 0.03%
Impurity C, substances involved (HPLC) (sample moisture 0.5%, Day 20): 0.06%
Total impurities, substances involved (HPLC) (sample moisture 0.5%, Day 20): 0.09%
Impurity A, substances involved (HPLC) (sample moisture 0.5%, Day 30): 0.03%
Impurity C, substances involved (HPLC) (sample moisture 0.5%, Day 30): 0.06%
Total impurities, substances involved (HPLC) (sample moisture 0.5%, Day 30): 0.09%
Impurity A, substances involved (HPLC) (sample moisture 4.5%, Day 0): 0.02%
Impurity C, substances involved (HPLC) (sample moisture 4.5%, Day 0): 0.06%
Total impurities, substances involved (HPLC) (sample moisture 4.5%, Day 0): 0.08%
Impurity A, substances involved (HPLC) (sample moisture 4.5%, Day 10): 0.25%
Impurity C, substances involved (HPLC) (sample moisture 4.5%, Day 10): 0.36%
Single unknown impurity, substances involved (HPLC) (sample moisture 4.5%, Day 10): 0.12%
Total impurities, substances involved (HPLC) (sample moisture 4.5%, Day 10): 0.73%
Impurity A, substances involved (HPLC) (sample moisture 4.5%, Day 20): 0.30%
Impurity C, substances involved (HPLC) (sample moisture 4.5%, Day 20): 0.40%
Single unknown impurity, substances involved (HPLC) (sample moisture 4.5%, Day 20): 0.20%
Total impurities, substances involved (HPLC) (sample moisture 4.5%, Day 20): 0.90%
Impurity A, substances involved (HPLC) (sample moisture 4.5%, Day 30): 0.35%
Impurity C, substances involved (HPLC) (sample moisture 4.5%, Day 30): 0.50%
Single unknown impurity, substances involved (HPLC) (sample moisture 4.5%, Day 30): 0.20%
Total impurities, substances involved (HPLC) (sample moisture 4.5%, Day 30): 1.05%
